Measurements taken from patent US20250188085A1, “COMPOSITIONS AND METHODS FOR INHIBITION OF RAS” (THERAS, INC., priority 2022, published 2025).

How the values were obtained:
pERK in NCI-H358 cells = experiment: Cell-based pERK HTRF assay; conditions: Homo sapiens, NCI-H358, 0.5 h, 30 min incubation, read-out: pERK in NCI-H358 cell inhibition IC50
In short: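 Cells seeded at 4×10^4/well in RPMI with 10% FBS, then next day treated for 30 min with a 9-point, 3-fold series from 75 μM top concentration at 0.25% DMSO. Lysates were read for pERK by HTRF (d2/Eu cryptate antibodies) after 4–24 h at room temperature, emission at 615 nm.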

[1] = target: T1, GDP-loaded KRAS4b (amino acids 1-169) G12C/C118S protein (Homo sapiens, UniProt P01116, C118S/G12C); experiment: Covalent cysteine 12 modification by MALDI-TOF MS, GDP-loaded KRAS G12C; type: binding; conditions: 15 minutes reaction time point
T1 construct: KRAS4b (amino acids 1-169) G12C/C118S protein; made in house
In short: (§1)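 KRAS4b 1-169 G12C/C118S loaded with GDP, GppNHp or GTP was used at 1 μM in 20 mM HEPES, 150 mM NaCl, 1 mM MgCl2, pH 7.3, and incubated with compound (5 mM DMSO stock) at room temperature in the dark. % modification at 15 min is adduct peak height over total protein peak heights by linear-mode MALDI-TOF.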

[2] = target: T2, GppNHp-loaded KRAS4b (amino acids 1-169) G12C/C118S protein (Homo sapiens, UniProt P01116, C118S/G12C); experiment: Covalent cysteine 12 modification by MALDI-TOF MS, GppNHp-loaded KRAS G12C; type: binding; conditions: 15 minutes reaction time point
T2 construct: KRAS4b (amino acids 1-169) G12C/C118S protein; made in house
In short: as §1

[3] = target: T3, GTP-loaded KRAS4b (amino acids 1-169) G12C/C118S protein (Homo sapiens, UniProt P01116, C118S/G12C); experiment: Covalent cysteine 12 modification by MALDI-TOF MS, GTP-loaded KRAS G12C; type: binding; conditions: 15 minutes reaction time point
T3 construct: KRAS4b (amino acids 1-169) G12C/C118S protein; made in house
In short: as §1

[4] = target: T4, Avi-KRAS G12C (1-169) GppNHp/RAF1 RBD-3×FLAG (52-151) (Homo sapiens, UniProt P01116, G12C); experiment: Raf1 RBD-KRAS G12C-GppNHp disruption (protein:protein interaction HTRF assay); type: biochemical
T4 construct: Avi-KRAS G12C (1-169) GppNHp/RAF1 RBD-3×FLAG (52-151)
In short: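 HTRF measuring disruption of 50 nM Avi-KRAS G12C (1-169) loaded with GppNHp binding RAF1 RBD-3×FLAG (52-151), in pH 7.5 Tris buffer with 5 mM MgCl2, 0.1% BSA, 10% DMSO. KRAS preincubated with compound 1 h, then RBD 1 h, then detection reagents 1 h, all at room temperature. Compound titration 30-0.02 μM; activity expressed as percent of DMSO control.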

| SMILES | IC50 (pERK in NCI-H358 cells) | GDP-KRAS G12C percent of modification [1] | GppNHp-KRAS G12C percent of modification [2] | GTP-KRAS G12C percent of modification [3] | IC50 [4] |
| --- | --- | --- | --- | --- | --- |
| C=CC(=O)N1CC[C@@H](Oc2nc(OC[C@@]34CCCN3C[C@H](OC)C4)nc3cc(-c4ccc(F)c5sc(N)c(C#N)c45)c(C(F)(F)F)cc23)[C@H]1C [Compound 102] | ≤ 100 nM | A (percent of modification ≥70%) | A (percent of modification ≥70%) | A (percent of modification ≥70%) | ≤ 500 nM |
| C=CC(=O)N1CC[C@@H](Oc2nc(OC[C@@]34CCCN3C[C@H](F)C4)nc3c(Cl)c(-c4ccc(F)c5sc(N)c(C#N)c45)ncc23)[C@H]1C [Compound 106, 4-(4-(((2R,3R)-1-acryloyl-2-methylpyrrolidin-3-yl)oxy)-8-chloro-2-(((2R,7aS)-2-fluorotetrahydro-1H-pyrrolizin-7a (5H)-yl)methoxy)pyrido[4,3-d]pyrimidin-7-yl)-2-amino-7-fluorobenzo[b]thiophene-3-carbonitrile] | ≤ 100 nM | A (percent of modification ≥70%) | A (percent of modification ≥70%) | A (percent of modification ≥70%) | ≤ 500 nM |
| C=CC(=O)N1CC[C@@H](Oc2nc(OC[C@@]34CCCN3C[C@H](F)C4)nc3c(F)c(-c4ccc(F)c5sc(N)c(C#N)c45)ccc23)[C@H]1CC [Compound 108] | ≤ 100 nM | A (percent of modification ≥70%) | C (10%≤modification <50%) | C (10%≤modification <50%) | ≤ 500 nM |
| C=CC(=O)N1CC[C@@H](Oc2nc(OC[C@@]34CCCN3C[C@H](F)C4)nc3c(Cl)c(-c4ccc(F)c5sc(N)c(C#N)c45)ncc23)[C@H]1COC [Compound 110] | ≤ 100 nM | A (percent of modification ≥70%) | A (percent of modification ≥70%) | A (percent of modification ≥70%) | ≤ 500 nM |
| C=CC(=O)N1CC[C@@H](Oc2nc(OC[C@@]34CCCN3C[C@H](F)C4)nc3c(F)c(-c4ccc(F)c5sc(N)c(C#N)c45)c(Cl)cc23)[C@H]1COC [Compound 111] | ≤ 100 nM | C (10%≤modification <50%) | D (percent of modification <10%) | D (percent of modification <10%) | 500 to 5000 nM |
| C=CC(=O)N1CC[C@@H](Oc2nc(OC[C@@]34CCCN3C[C@H](F)C4)nc3cc(-c4ccc(F)c5sc(N)c(C#N)c45)c(F)cc23)[C@H]1COC [Compound 113] | > 1000 nM | C (10%≤modification <50%) | D (percent of modification <10%) | D (percent of modification <10%) | > 20000 nM |
| C=CC(=O)N1CC[C@@H](Oc2nc(OC[C@@]34CCCN3C[C@H](F)C4)nc3c(F)c(-c4ccc(F)c5sc(N)c(C#N)c45)c(C(F)(F)F)cc23)[C@H]1CC [Compound 114] | ≤ 100 nM | C (10%≤modification <50%) | C (10%≤modification <50%) | C (10%≤modification <50%) | ≤ 500 nM |
| C=CC(=O)N1CC[C@@H](Oc2nc(OC[C@@]34CCCN3C[C@H](F)C4)nc3c(F)c(-c4ccc(F)c5sc(N)c(C#N)c45)c(C(F)(F)F)cc23)[C@@H]1CC [Compound 115] | 100 to 1000 nM | C (10%≤modification <50%) | D (percent of modification <10%) | D (percent of modification <10%) | 500 to 5000 nM |
| C=CC(=O)N1CC[C@@H](Oc2nc(OC[C@@]34CCCN3C[C@H](F)C4)nc3c(F)c(-c4ccc(F)c5sc(N)c(C#N)c45)ccc23)[C@@H]1CC [Compound 116] | > 1000 nM | C (10%≤modification <50%) | D (percent of modification <10%) | D (percent of modification <10%) | > 20000 nM |
| C=CC(=O)N1CC[C@@H](Oc2nc(OC[C@@]34CCCN3C[C@H](F)C4)nc3c(F)c(-c4ccc(F)c5sc(N)c(C#N)c45)c(Cl)cc23)[C@@H]1CC [Compound 117] | > 1000 nM | C (10%≤modification <50%) | D (percent of modification <10%) | D (percent of modification <10%) | > 20000 nM |
| C=CC(=O)N1CC[C@@H](Oc2nc(OC[C@@]34CCCN3C[C@H](F)C4)nc3c(F)c(-c4ccc(F)c5sc(N)c(C#N)c45)ccc23)[C@@H]1C [Compound 118] | > 1000 nM | A (percent of modification ≥70%) | D (percent of modification <10%) | D (percent of modification <10%) | 500 to 5000 nM |
| C=CC(=O)N1CC[C@@H](Oc2nc(OC[C@@]34CCCN3C[C@H](F)C4)nc3c(F)c(-c4ccc(F)c5sc(N)c(C#N)c45)c(Cl)cc23)[C@@H]1C [Compound 121] | 100 to 1000 nM | C (10%≤modification <50%) | C (10%≤modification <50%) | D (percent of modification <10%) | ≤ 500 nM |

The next lines start with the values.

| IC50 (pERK in NCI-H358 cells) | GDP-KRAS G12C percent of modification [1] | GppNHp-KRAS G12C percent of modification [2] | GTP-KRAS G12C percent of modification [3] | IC50 [4] | SMILES |
| --- | --- | --- | --- | --- | --- |
| ≤ 100 nM | A (percent of modification ≥70%) | B (50≤percent of modification <70%) | C (10%≤modification <50%) | ≤ 500 nM | C=CC(=O)N1CC[C@@H](Oc2nc(OC[C@@]34CCCN3C[C@H](F)C4)nc3cc(-c4ccc(F)c5sc(N)c(C#N)c45)ccc23)[C@H]1C [Compound 103] |
| 100 to 1000 nM | A (percent of modification ≥70%) | C (10%≤modification <50%) | C (10%≤modification <50%) | ≤ 500 nM | C=CC(=O)N1CC[C@@H](Oc2nc(OC[C@@]34CCCN3C[C@H](F)C4)nc3c(C#N)c(-c4ccc(F)c5sc(N)c(C#N)c45)ccc23)[C@H]1C [Compound 104] |
| ≤ 100 nM | B (50≤percent of modification <70%) | A (percent of modification ≥70%) | B (50≤percent of modification <70%) | ≤ 500 nM | C=CC(=O)N1CC[C@@H](Oc2nc(OC[C@@]34CCCN3C[C@H](F)C4)nc3c(Cl)c(-c4ccc(F)c5sc(N)c(C#N)c45)c(C#N)cc23)[C@H]1C [Compound 105] |
| ≤ 100 nM | A (percent of modification ≥70%) | A (percent of modification ≥70%) | C (10%≤modification <50%) | ≤ 500 nM | C=CC(=O)N1CC[C@@H](Oc2nc(OC[C@@]34CCCN3C[C@H](F)C4)nc3cc(-c4ccc(F)c5sc(N)c(C#N)c45)c(C#N)cc23)[C@H]1C [Compound 107] |
| ≤ 100 nM | A (percent of modification ≥70%) | A (percent of modification ≥70%) | C (10%≤modification <50%) | ≤ 500 nM | C=CC(=O)N1CC[C@@H](Oc2nc(OC[C@@]34CCCN3C[C@H](F)C4)nc3cc(-c4ccc(F)c5sc(N)c(C#N)c45)c(C#N)cc23)[C@H]1COC [Compound 112] |
| > 1000 nM | B (50≤percent of modification <70%) | D (percent of modification <10%) | D (percent of modification <10%) | 5000 to 20000 nM | C=CC(=O)N1CC[C@@H](Oc2nc(OC[C@@]34CCCN3C[C@H](F)C4)nc3cc(-c4ccc(F)c5sc(N)c(C#N)c45)c(F)cc23)[C@@H]1C [Compound 119] |
| 100 to 1000 nM | B (50≤percent of modification <70%) | D (percent of modification <10%) | D (percent of modification <10%) | 5000 to 20000 nM | C=CC(=O)N1CC[C@@H](Oc2nc(OC[C@@]34CCCN3C[C@H](F)C4)nc3cc(-c4ccc(F)c5sc(N)c(C#N)c45)c(C#N)cc23)[C@@H]1C [Compound 120] |
